pIC50: −log10 of the molar value. The source made the active and inactive calls. The rule behind the calls is not given here.
How the values were obtained:
Enterococcus faecalis [1] = experiment: (§1) Inhibition of Enterococcus faecalis recombinant type 1 methionine aminopeptidase expressed in Escherichia coli BL21 (DE3) using Met-pNA substrate
[2] = as §1
Enterococcus faecalis [3] = experiment: Maximal inhibition of Enterococcus faecalis recombinant type 1 methionine aminopeptidase expressed in Escherichia coli BL21 (DE3) using Met-pNA substrate at 10 uM in presence of CoCl2
Enterococcus faecalis [4] = experiment: Inhibition of Enterococcus faecalis recombinant type 1 methionine aminopeptidase expressed in Escherichia coli BL21 (DE3) using Met-pNA substrate by spectral study in presence of CoCl2
Enterococcus faecalis [5] = experiment: Inhibition of Enterococcus faecalis recombinant type 1 methionine aminopeptidase expressed in Escherichia coli BL21 (DE3) using Met-pNA substrate by spectral study in presence of Mn2+

O=C([O-])CC(O)(CC(=O)[O-])C(=O)[O-].[Na+].[Na+].[Na+]
inhibition (Enterococcus faecalis [1]): inactive

c1cc(-c2ccncc2)ccn1
inhibition (Enterococcus faecalis [1]): inactive

c1ccc(-c2ccccn2)nc1 [DIPYRIDYL]
pIC50 [2]: 5.18 | inhibition (Enterococcus faecalis [3]): 75% | inhibition (Enterococcus faecalis [4]): Active | inhibition (Enterococcus faecalis [5]): Active

Source: ChEMBL document CHEMBL3217429, “Structural studies of Enterococcus faecalis methionine aminopeptidase and design of microbe specific 2,2-bipyridine based inhibitors” (Medchemcomm, 2012)
